Assay results taken from patent EP0554004A2, “Cephem compounds and antibacterial agents” (KATAYAMA SEIYAKUSYO CO. Ltd., priority 1992, dated 1993).
Converted amounts (≈) assume the structure as drawn.

Assays:
[1] = system: Bacillus subtilis ATCC 6633; test: MIC against standard strains (Test Example 1); format: cell-based; settings: ATCC6633, Muller-Hinton agar, 37°C overnight
Procedure: (§1) By using each test strain cultured overnight at 37°C in a Muller-Hinton broth, there was prepared a bacterial solution with a bacterial cell population of 1 x 10^6 CFU/mi of the same bouillon. The bacterial solution was inoculated into the Muller-Hinton agar media each containing respectively one test agent and, after overnight incubation at 37°C, the minimum concentration that inhibited growth of the bacteria was determined and shown as MIC also in Table 1.
(§2) Staphylococcus aureus 167 and Staphylococcus aureus 195 used in the test were MRSA. CTM (cefotiam) and FMOX (flomoxef) were used as control agents.

[2] = system: Citrobacter freundii ATCC 8090; test: MIC against standard strains (Test Example 1); format: cell-based; settings: ATCC8090, Muller-Hinton agar, 37°C overnight
Procedure: as §1, §2

[3] = system: Enterobacter cloacae ATCC 13407; test: MIC against standard strains (Test Example 1); format: cell-based; settings: ATCC13407, Muller-Hinton agar, 37°C overnight
Procedure: as §1, §2

[4] = system: Escherichia coli CSH2 (RE45); test: MIC against standard strains (Test Example 1); format: cell-based
Procedure: as §1, §2

[5] = system: Escherichia coli CSH2 (RK1); test: MIC against standard strains (Test Example 1); format: cell-based
Procedure: as §1, §2

[6] = system: Escherichia coli NIHJ JC-2; test: MIC against standard strains (Test Example 1); format: cell-based; settings: NIHJJC2, Muller-Hinton agar, 37°C overnight
Procedure: as §1, §2

[7] = system: Klebsiella pneumoniae IFO 3317; test: MIC against standard strains (Test Example 1); format: cell-based; settings: IFO3317, Muller-Hinton agar, 37°C overnight
Procedure: as §1, §2

[8] = system: Klebsiella pneumoniae No. 42; test: MIC against standard strains (Test Example 1); format: cell-based; settings: Muller-Hinton agar, 37°C overnight
Procedure: as §1, §2

[9] = system: Micrococcus luteus ATCC 9341; test: MIC against standard strains (Test Example 1); format: cell-based; settings: ATCC9341, Muller-Hinton agar, 37°C overnight
Procedure: as §1, §2

[10] = system: Morganella morganii IFO 3848; test: MIC against standard strains (Test Example 1); format: cell-based; settings: IFO3848, Muller-Hinton agar, 37°C overnight
Procedure: as §1, §2

[11] = system: Proteus mirabilis IFO 3849; test: MIC against standard strains (Test Example 1); format: cell-based; settings: IFO3849, Muller-Hinton agar, 37°C overnight
Procedure: as §1, §2

Proteus vulgalis OX-19 = test: MIC against standard strains (Test Example 1); format: cell-based; settings: Muller-Hinton agar, 37°C overnight
Procedure: as §1, §2

[12] = system: Pseudomonas aeruginosa NCTC 10490; test: MIC against standard strains (Test Example 1); format: cell-based; settings: NCTC10490, Muller-Hinton agar, 37°C overnight
Procedure: as §1, §2

[13] = system: Psuedomonas aeruginosa IFO 3445; test: MIC against standard strains (Test Example 1); format: cell-based; settings: Muller-Hinton agar, 37°C overnight
Procedure: as §1, §2

[14] = system: Serratia marcescens IAM 1184; test: MIC against standard strains (Test Example 1); format: cell-based; settings: IAM1184, Muller-Hinton agar, 37°C overnight
Procedure: as §1, §2

[15] = system: Staphylococcus aureus 167; test: MIC against standard strains (Test Example 1); format: cell-based; settings: Staphylococcus aureus 167 (MRSA); Muller-Hinton agar, 37°C overnight
Procedure: as §1, §2

[16] = system: Staphylococcus aureus 195; test: MIC against standard strains (Test Example 1); format: cell-based; settings: Staphylococcus aureus 195 (MRSA); Muller-Hinton agar, 37°C overnight
Procedure: as §1, §2

[17] = system: Staphylococcus aureus 209P JC-1; test: MIC against standard strains (Test Example 1); format: cell-based; settings: Muller-Hinton agar, 37°C overnight
Procedure: as §1, §2

[18] = system: Staphylococcus aureus Smith; test: MIC against standard strains (Test Example 1); format: cell-based; settings: Muller-Hinton agar, 37°C overnight
Procedure: as §1, §2

[19] = system: Staphylococcus epidermidis IAM 1296; test: MIC against standard strains (Test Example 1); format: cell-based; settings: IAM1296, Muller-Hinton agar, 37°C overnight
Procedure: as §1, §2

clinically isolated MRSA = test: Antibacterial potency against clinically isolated MRSA (Test Example 2); format: cell-based, methicillin-resistant Staphylococcus aureus; settings: Staphylococcus aureus, 52 strains of clinically isolated MRSA
Procedure: A test on the antibacterial potency against clinically isolated MRSA was conducted in the following way.
52 strains of clinically isolated MRSA were used, and MIC was determined for each of the strains according to the standard method of the Japan Chemotherapical Society as in Test Example 1. The minimum growth inhibitory concentration which inhibited growth of 50% of the strains tested was expressed as MIC50 (µg/ml), and the minimum growth inhibitory concentration which inhibited growth of 90% of the strains was expressed as MIC90 (µg/ml).
In this test, FMOX (flomoxef), IPM/CS (imipenem/cilastatin), CMZ (cefmetazole), MINO (minocycline) and DMPPC (methicillin) were used as control agents.

B. subtilis ATCC6633 = test: MIC against standard strains (Test Example 3); format: cell-based; settings: Bacillus subtilis; B. subtilis ATCC6633 (Test Example 3); read-out: MIC
Procedure, shortened: (§3)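 Overnight Mueller-Hinton broth cultures grown at 37°C were diluted to 1 x 10^6 CFU/ml in the same broth and inoculated onto Mueller-Hinton agar containing the test agent. After overnight incubation at 37°C, MIC was taken as the lowest concentration inhibiting growth.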

E. coli CSH2 (RE45) = test: MIC against standard strains (Test Example 3); format: cell-based; settings: Escherichia coli
Procedure, shortened: (§4)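 Agar dilution on Muller-Hinton agar containing test agent, inoculated with overnight Muller-Hinton broth cultures adjusted to 1 x 10^6 CFU/ml; MIC read as lowest concentration inhibiting growth after overnight incubation at 37°C.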

E. coli CSH2 (RK1) = test: MIC against standard strains (Test Example 3); format: cell-based; settings: Escherichia coli
Procedure, shortened: as §4

E. coli NIHJ JC-2 = test: MIC against standard strains (Test Example 3); format: cell-based; settings: Escherichia coli, NIHJJC2; E. coli NIHJ JC-2 (Test Example 3); read-out: MIC
Procedure, shortened: as §3

K. pneumoniae IFO3317 = test: MIC against standard strains (Test Example 3); format: cell-based; settings: Klebsiella pneumoniae; K. pneumoniae IFO3317 (Test Example 3); read-out: MIC
Procedure, shortened: as §3

M. Morganii IFO3848 = test: MIC against standard strains (Test Example 3); format: cell-based; settings: Morganella morganii; M. Morganii IFO3848 (Test Example 3); read-out: MIC
Procedure, shortened: as §3

M. luteus ATCC 9341 = test: MIC against standard strains (Test Example 3); format: cell-based; settings: Micrococcus luteus, ATCC9341; M. luteus ATCC 9341 (Test Example 3); read-out: MIC
Procedure, shortened: as §3

P. vulugaris OX-19 = test: MIC against standard strains (Test Example 3); format: cell-based; settings: P. vulugaris OX-19 (Test Example 3); read-out: MIC
Procedure, shortened: as §3

S. aureus 167 = test: MIC against standard strains (Test Example 3); format: cell-based; settings: Staphylococcus aureus; S. aureus 167 (MRSA) (Test Example 3); read-out: MIC
Procedure, shortened: as §3

S. aureus Smith = test: MIC against standard strains (Test Example 3); format: cell-based; settings: Staphylococcus aureus; S. aureus Smith (Test Example 3); read-out: MIC
Procedure, shortened: as §3

`CO[C@@]1(NC(=O)CSC(F)F)C(=O)N2C(C(=O)O)=C(CSc3nnnn3CCO)CO[C@@H]21` [FMOX, flomoxef, reference compound] gave an MIC [1] of 0.2 µg/mL (≈ 0.403 µM), an MIC [2] of 0.39 µg/mL (≈ 0.786 µM) and an MIC [3] of 25 µg/mL (≈ 50.4 µM). It also gave an MIC [4] of 0.1 µg/mL (≈ 0.201 µM), an MIC [5] of 0.05 µg/mL (≈ 0.101 µM) and an MIC [6] of 0.05 µg/mL (≈ 0.101 µM). It also gave an MIC [7] of 0.05 µg/mL (≈ 0.101 µM), an MIC [8] of 0.1 µg/mL (≈ 0.201 µM) and an MIC [9] of 0.2 µg/mL (≈ 0.403 µM). It also gave an MIC [10] of 0.39 µg/mL (≈ 0.786 µM), an MIC [11] of 0.2 µg/mL (≈ 0.403 µM) and an MIC (Proteus vulgalis OX-19) of 0.39 µg/mL (≈ 0.786 µM). The MIC [12] was over 100 µg/mL, the MIC [13] was over 100 µg/mL and the MIC [14] was 0.2 µg/mL (≈ 0.403 µM). The MIC [15] was 100 µg/mL (≈ 201 µM), the MIC [16] was 6.25 µg/mL (≈ 12.6 µM) and the MIC [17] was 0.39 µg/mL (≈ 0.786 µM). The MIC [18] was 0.39 µg/mL (≈ 0.786 µM), the MIC [19] was 0.2 µg/mL (≈ 0.403 µM) and the MIC50 (clinically isolated MRSA; concentration inhibiting growth of 50% of the strains (Test Example 2)) was 8.16 µg/mL (≈ 16.4 µM). The MIC90 (clinically isolated MRSA; concentration inhibiting growth of 90% of the strains (Test Example 2)) was 40.2 µg/mL (≈ 81 µM), the MIC (B. subtilis ATCC6633) was 0.2 µg/mL (≈ 0.403 µM) and the MIC (E. coli CSH2 (RE45)) was 0.05 µg/mL (≈ 0.101 µM). It also gave an MIC (E. coli CSH2 (RK1)) of 0.05 µg/mL (≈ 0.101 µM), an MIC (E. coli NIHJ JC-2) of 0.05 µg/mL (≈ 0.101 µM) and an MIC (K. pneumoniae IFO3317) of 0.025 µg/mL (≈ 0.0504 µM). The MIC (M. Morganii IFO3848) was 0.39 µg/mL (≈ 0.786 µM), the MIC (M. luteus ATCC 9341) was 0.05 µg/mL (≈ 0.101 µM) and the MIC (P. vulugaris OX-19) was 0.39 µg/mL (≈ 0.786 µM). It also gave an MIC (S. aureus 167) of 50 µg/mL (≈ 101 µM) and an MIC (S. aureus Smith) of 0.39 µg/mL (≈ 0.786 µM).
